For 1 compound, IC50 results are on record in ChEMBL document CHEMBL1150846, “Thorectandrols A and B, new cytotoxic sesterterpenes from the marine sponge Thorectandra species” (J Nat Prod, 2001).

The IC50 is the concentration at which inhibition is half-maximal. A low value points to higher potency.

One assay has as its system Malme-3M. In words: Cytotoxicity against human MALME-3M cells after 2 days by XTT assay. Type of assay: functional, cell-based. The following applies: 48 h.
A further assay concerns MCF7. The assay can be described thus: Cytotoxicity against human MCF7 cells after 2 days by XTT assay. The class given is functional, cell-based. Particulars: MCF7, 48 h. (Tetrazolium dyes change colour on reduction, which living cells bring about.)

≈ marks a conversion by molar mass, not a printed value.

On to `C=C1CCC[C@@H]2[C@@](C)(CC/C(C)=C/C[C@@H](O)C3=CC(=O)OC3O)[C@@H](C)CC[C@@]12C` (some centres not stated) [PALAUOLOL], for which the IC50 in the assay on Malme-3M came out at 0.46 µg/mL (≈ 1.14 µM); with MCF7, 14.2 µg/mL (≈ 35.3 µM).
